Experimental data: US20090085344A1, “Organic fluorescent sulfonyl ureido benzoxazinone pigments” (Honeywell International Inc., priority 2007, published 2009)

How the values were obtained:
Type in all cases: physicochemical
[1] = Intensity of fluorescence of the powder, Minolta luminance meter under 365 nm excitation
Procedure: (§1) In accordance with the present disclosure, 1-(para-toluenesulfonyl)-3-[2-(4-oxo-4H-benzo[d][1,3]oxazine-2-yl)-phenyl]urea, also named 1-(4-methylphenylsulfonyl)-3-[2-(4-oxo-4H-benzo[d][1,3]oxazine-2-yl)-phenyl]urea, where R^1, R^2, R^3 and R^4 are each hydrogen, and R^5 is 4-methylphenyl, was prepared according to the following procedure: A 250 mL three-neck bottle was charged at room temperature with anthranoylanthranilic acid (0.05 mol) and 100 mL methyl ethyl ketone. Para-toluenesulfonyl isocyanate (0.05 mol) was then added, with stirring, and the reaction mixture was heated under reflux at about 80° C. for about 4 hours. Thereafter, the resulting suspension was cooled to about 40° C., and acetic anhydride (40 mL) was added. The resulting mixture was heated for an additional 3 hours. After cooling to about 10° C., the precipitate was filtered under suction, washed with acetone, and dried at about 50° C. under atmospheric pressure to produce a white powder in about 70% -85% yield. The Emission (fluorescence) maximum of the resultant powder was 526 nm. The excitation maximum is/was 380 nm. […] Intensity of fluorescence of the powder was 350 cd/m^2, as measured with a Minolta luminance meter under 365 nm excitation. Solubility of the powder in 2-butanone was less than 0.5% at room temperature.

[2] = Fluorescence emission and excitation maxima of the powder
Excerpt: The benzoxazinone compounds of the present disclosure are colorless, and fluoresce in the visible region. More specifically, the benzoxazinone compounds of the present disclosure produce a bright emission in a region from about 520 nm to about 540 nm wavelength when irradiated by UV light energy at about 366 nm wavelength. The benzoxazinone compounds have an excitation maximum at about 340 nm to about 420 nm wavelength.
as §1

[3] = Solubility of the powder in 2-butanone; settings: room temperature
Procedure: as §1

[4] = Lightfastness: relative intensities at 0 hours and after 104 hours (FIGS. 1 and 2); settings: compared with Lumilux CD 397 and Lumilux CD 302
Procedure: FIG. 1 is a comparative bar graph of the lightfastness of 1-(para-toluenesulfonyl)-3-[2-(4-oxo-4H-benzo[d]-[1,3]oxazine-2-yl)-phenyl]urea (compound 7), as compared with aliphatic ureidobenzoxazinone (UBO)(compound 11), Nitril-AUBO (compound 33), Lumiluxg CD 397, and Lumilux® CD 302, by measuring relative intensities at 0 hours and after 104 hours.
FIG. 2 is a comparative bar graph of the percent (%) loss of intensity of lightfastness of 1-(para-toluenesulfonyl)-3-[2-(4-oxo-4H-benzo[d]-[1,3]oxazine-2-yl)-phenyl]urea (compound 7) relative to compound 11, compound 33, Lumilux® CD 397, and Lumilux® CD 302.
Referring now to the Figures, FIG. 1 illustrates a comparative bar graph of the intensity of lightfastness (in cd/m^2) of 1-(para-toluenesulfonyl)-3-[2-(4-oxo-4H-benzo[d]-[1,3]oxazine-2-yl)-phenyl]urea (compound 7), which is shown relative to various ureido benzoxazinone compounds (UBO), such as aliphatic UBO (compound 11), Nitril-AUBO (compound 33), and Lumilux® CD 397 and Lumilux® CD 302.
FIG. 2 is a comparative bar graph illustrating of the percent loss of intensity of lightfastness of 1-(para-toluenesulfonyl)-3-[2-(4-oxo-4H-benzo[d]-[1,3]oxazine-2-yl)-phenyl]urea (compound 7) compared with ureido benzoxazinone compounds (UBO) such as compound 11, compound 33, Lumilux® CD 397 and Lumiluxg CD 302.

## Cc1ccccc1S(=O)(=O)NC(=O)Nc1ccccc1-c1nc2ccccc2c(=O)o1 [Example 3, 1-(2-methylphenylsulfonyl)-3-[2-(4-oxo-4H-benzo[d]-[1,3]oxazine-2-yl)-phenyl]urea]
[1]
  Intensity of fluorescence of the powder: 260 cd/M^2
[2]
  Emission (fluorescence) maximum of the resultant powder: 530 nm
  excitation maximum: 380 nm
[3]
  Solubility of the powder in 2-butanone: less than 1%

## O=C(Nc1ccccc1-c1nc2ccccc2c(=O)o1)NS(=O)(=O)c1ccc(Cl)cc1 [Example 4, 1-(4-chlorophenylsulfonyl)-3-[2-(4-oxo-4H-benzo[d]-[1,3]oxazine-2-yl)-phenyl]urea]
[1]
  Intensity of fluorescence of the powder: 330 cd/m^2
[2]
  Emission (fluorescence) maximum of the resultant powder: 539 nm
  excitation maximum: 380 nm
[3]
  Solubility of the powder in 2-butanone: less than 0.5%

## Cc1ccc(S(=O)(=O)NC(=O)Nc2ccccc2-c2nc3ccccc3c(=O)o2)cc1 [Example 1, 1-(para-toluenesulfonyl)-3-[2-(4-oxo-4H-benzo[d]-[1,3]oxazine-2-yl)-phenyl]urea]
[4]; 0 hours and after 104 hours
  degree (intensity) of lightfastness: greater degree (intensity) of lightfastness
[4]; after 104 hours
  loss of lightfastness intensity: lower loss of lightfastness intensity
[1]
  Intensity of fluorescence of the powder: 350 cd/m^2
[2]
  Emission (fluorescence) maximum of the resultant powder: 526 nm
  excitation maximum: 380 nm
[3]
  Solubility of the powder in 2-butanone: less than 0.5%

## O=C(Nc1ccccc1-c1nc2ccccc2c(=O)o1)NS(=O)(=O)c1ccccc1 [Example 2, 1-(phenylsulfonyl)-3-[2-(4-oxo-4H-benzo[d]-[1,3]oxazine-2-yl)-phenyl]urea]
[1]
  Intensity of fluorescence of the powder: 320 cd/m^2
[2]
  Emission (fluorescence) maximum of the resultant powder: 528 nm
  excitation maximum: 380 nm
[3]
  Solubility of the powder in 2-butanone: less than 0.5%
